Values quoted from earlier work, collected in article PMC12385147, “Discovery of Novel 2-Substituted Aniline Pyrimidine Based Derivatives as Potent Mer/c-Met Dual Inhibitors with Improvement Bioavailability” (Biomolecules, 2025).

How the values were obtained:
[1] = cited from earlier work
xenograft models = tested on: xenograft models; design: method as in PMID 29554921; conditions: cited from earlier work

SMILES | t1/2 in human hepatocytes [1] | tumor volume reduction vs. control (xenograft models)
CCCCNc1ncc2c(-c3ccc(CN4CCN(C)CC4)cc3)cn([C@H]3CC[C@H](O)CC3)c2n1 [UNC2025] | 1.13 h | 
CCCCNc1ncc(-c2ccc(CN3CCOCC3)cn2)c(N[C@H]2CC[C@H](O)CC2)n1 [UNC2250] |  | ~ 60%
